According to US20250215014A1, “KINASE INHIBITORS, PREPARATION METHODS AND USES THEREOF” (InventisBio Co., Ltd., priority 2022, published 2025):
pEC50, pIC50: −log10 of the molar value.

Assays:
[1] = biological target: DGKa (Homo sapiens (Human), UniProt P23743); assay: DGK ADP-Glo Kinase Assay (DGKa); type: biochemical; conditions: 10 nM DGKa, 15 uM ATP
Protocol: (§1) Luminescence was recorded using an Tecan SPARK microplate reader.

[2] = biological target: DGKz (Homo sapiens (Human), UniProt Q13574); assay: DGK ADP-Glo Kinase Assay (DGKz); type: biochemical; conditions: 5 nM DGKz, 15 uM ATP
Protocol: as §1

[3] = tested on: PBMC; assay: Human PBMC IL-2 Assay; type: cell-based; conditions: anti-CD3/CD28 antibody, IL-2 level
Protocol: PBMC (frozen) obtained from health donor were thawed in RPMI-1640 medium with 10% o FBS, incubated for 4 h at 37° C. In a 96-well plate, 200,000 PBMC cells in 160 uL were added to each assay well. Ten microliter compound solution (10 uM to 0.6 nM, 8 points with 4-fold dilution) were added to cells in each well and incubated for 60 minutes at 37° C. Then 30 uL anti-CD3/CD28 antibody (Catalog #10991, Stemcell) were added to cells and incubated overnight at 37° C. After the incubation, 16 uL supernatants were transferred into a new 384-well white assay plate for cytokine analysis. IL-2 level was quantified using Human IL-2 kit (Catalog #62HIL02PEG, Cisbio) as described in the manufacturer manual.
Activation at […] activity (EC50) was calculated with the equation: […]
(§2) X is log of compound concentration, Y is the IL-2 concentration, increasing as X increases.

[4] = tested on: Jurkat cells; assay: Jurkat IL-2 Assay; type: cell-based; conditions: Homo sapiens, anti-CD3/CD28 antibody, IL-2 level
Protocol: Jurkat cells (ATCC) were cultured in RPMI-1640 medium supplemented with 10% FBS. In a 96-well plate, 250,000 cells in 130 uL were added to each assay well. Ten microliter compound solution (5 uM to 2.3 nM, 8 points with 3-fold dilution) were added to cells in each well and incubated for 60 minutes at 37° C. Then 10 uL anti-CD3/CD28 antibody (Catalog #10991, Stemcell) were added and incubated overnight at 37° C. After the incubation, 16 uL supernatants were transferred into a new 384-well white assay plate for cytokine analysis. IL-2 was quantified using Human IL-2 kit (Catalog #62HIL02PEG, Cisbio) as described in the manufacturer manual.
as §2

Chain of DGKa (P23743 whole entry): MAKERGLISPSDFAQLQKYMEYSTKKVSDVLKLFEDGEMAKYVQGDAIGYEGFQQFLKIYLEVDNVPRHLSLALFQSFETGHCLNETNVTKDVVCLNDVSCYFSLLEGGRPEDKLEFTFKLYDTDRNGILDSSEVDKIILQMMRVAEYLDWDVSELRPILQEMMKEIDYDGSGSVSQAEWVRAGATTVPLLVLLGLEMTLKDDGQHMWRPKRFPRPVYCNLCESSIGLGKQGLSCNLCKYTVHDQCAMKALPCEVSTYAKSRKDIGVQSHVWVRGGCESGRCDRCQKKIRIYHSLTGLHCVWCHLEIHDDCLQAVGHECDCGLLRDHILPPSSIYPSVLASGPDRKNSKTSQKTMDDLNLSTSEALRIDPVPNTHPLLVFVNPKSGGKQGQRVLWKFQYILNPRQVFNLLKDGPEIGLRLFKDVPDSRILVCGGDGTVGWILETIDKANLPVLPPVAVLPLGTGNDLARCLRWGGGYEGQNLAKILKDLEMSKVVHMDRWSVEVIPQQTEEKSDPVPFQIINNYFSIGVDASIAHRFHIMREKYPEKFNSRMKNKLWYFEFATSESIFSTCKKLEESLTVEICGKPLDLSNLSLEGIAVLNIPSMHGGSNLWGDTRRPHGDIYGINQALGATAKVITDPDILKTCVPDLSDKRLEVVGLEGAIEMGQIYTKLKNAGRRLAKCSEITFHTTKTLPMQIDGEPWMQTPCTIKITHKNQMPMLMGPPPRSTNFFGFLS
Chain of DGKz (Q13574 whole entry): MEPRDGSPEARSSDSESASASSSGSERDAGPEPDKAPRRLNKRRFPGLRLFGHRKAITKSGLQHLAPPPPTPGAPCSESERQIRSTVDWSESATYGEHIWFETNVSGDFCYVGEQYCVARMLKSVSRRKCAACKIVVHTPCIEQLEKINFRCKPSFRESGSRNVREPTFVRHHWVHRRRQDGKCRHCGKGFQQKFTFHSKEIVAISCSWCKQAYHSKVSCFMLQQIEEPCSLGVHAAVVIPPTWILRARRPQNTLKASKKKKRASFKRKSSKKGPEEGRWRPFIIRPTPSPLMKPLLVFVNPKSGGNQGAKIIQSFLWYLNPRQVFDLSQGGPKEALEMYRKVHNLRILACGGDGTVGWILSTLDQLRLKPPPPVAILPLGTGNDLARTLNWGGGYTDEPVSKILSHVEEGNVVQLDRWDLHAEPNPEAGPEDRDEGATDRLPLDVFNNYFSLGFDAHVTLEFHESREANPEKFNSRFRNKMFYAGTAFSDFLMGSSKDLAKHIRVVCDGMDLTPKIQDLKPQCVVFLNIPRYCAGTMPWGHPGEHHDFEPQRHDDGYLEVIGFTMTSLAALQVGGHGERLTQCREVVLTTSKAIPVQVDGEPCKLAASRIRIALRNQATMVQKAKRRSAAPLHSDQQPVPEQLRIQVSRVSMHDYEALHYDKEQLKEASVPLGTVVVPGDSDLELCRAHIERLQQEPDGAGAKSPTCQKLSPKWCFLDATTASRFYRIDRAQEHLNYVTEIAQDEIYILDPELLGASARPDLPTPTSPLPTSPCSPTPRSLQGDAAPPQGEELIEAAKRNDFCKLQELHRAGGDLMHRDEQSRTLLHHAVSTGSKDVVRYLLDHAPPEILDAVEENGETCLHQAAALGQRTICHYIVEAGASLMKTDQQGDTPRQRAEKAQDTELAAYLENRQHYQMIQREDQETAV

SMILES | pIC50 [1] | pIC50 [2] | pEC50 [4] | pEC50 [3]
CC[C@@H]1C[C@@H](Oc2ccc(OC(F)(F)F)cc2)CCN1c1nc(=O)n(C)c2ccc(C#N)nc12 (stereo in doubt) [Compound 19] | < 6.00 | > 7.00 |  | 6.00 to 6.30
Cn1c(=O)nc(N2CCC(Oc3ccc(OC(F)(F)F)cc3)CC2)c2nc(C#N)ccc21 [Compound 5] | 6.00 to 7.00 | 6.00 to 7.00 |  | 6.00 to 6.30
Cc1ccc2oc(C3(C)CCN(c4c(C#N)c(=O)n(C)c5ccc(C#N)nc45)CC3)nc2c1 [Compound 7] |  |  |  | > 6.30
Cn1c(=O)nc(N2CCC3(CC2)CC(c2ccccc2C(F)(F)F)=NO3)c2nc(C#N)ccc21 [Compound 48] |  |  |  | < 6.00
CC[C@@H]1CN(c2nc3nncn3c3ccc(C#N)nc23)[C@@H](CC)CN1C(=O)Nc1ccc(C(F)(F)F)cc1 [Compound 95] | > 7.00 | 6.00 to 7.00 |  | 
CC[C@H]1CN([C@H](c2ccc(S(F)(F)(F)(F)F)cc2)c2nc(C3CC3)cs2)[C@H](CC)CN1c1nc(=O)n(C)c2ccc(C#N)nc12 [Compound 98] | > 7.00 | > 7.00 |  | 
CCC(c1ccc(C(F)(F)F)cc1)N1CCN(c2nc3nncn3c3ccc(C#N)nc23)C(CC)C1 (stereo not shown) [Compound 102] | > 7.00 | < 6.00 |  | 
CCC(c1ccc(C23CC(C2)C3)nc1)N1C[C@H](CC)N(c2nc3nncn3c3ccc(C#N)nc23)C[C@H]1CC (stereo partly shown) [Compound 104] | > 7.00 | > 7.00 |  | 
CC[C@@H]1CN2c3c(c(=O)n(C)c4ccc(C#N)nc34)OC[C@H]2CN1[C@@H](CC)c1ccc(C(F)(F)F)cc1 [Compound 107] | > 7.00 | 6.00 to 7.00 |  | 
CC[C@@H]1CN2c3c(c(=O)n(C)c4ccc(C#N)nc34)OC[C@H]2CN1[C@H](CC)c1ccc(S(F)(F)(F)(F)F)cc1 [Compound 108] | > 7.00 | 6.00 to 7.00 |  | 
CC[C@H]1CN([C@H]2CCCCc3cc(C(F)(F)F)ccc32)[C@H](CC)CN1c1nc2nncn2c2ccc(C#N)nc12 [Compound 113] | > 7.00 | 6.00 to 7.00 |  | 
CC[C@H]1CN([C@@H]2CCCCc3cc(C(F)(F)F)ccc32)[C@H](CC)CN1c1nc2nncn2c2ccc(C#N)nc12 [Compound 114] | > 7.00 | > 7.00 |  | 
CC[C@H]1CN([C@@H](CC)c2nc(C3CC3)no2)[C@H](CC)CN1c1nc2nncn2c2ccc(C#N)nc12 [Compound 119] | > 7.00 | > 7.00 |  | 
CC[C@H]1CN([C@H](CC)c2nc(C3CC3)no2)[C@H](CC)CN1c1nc2nncn2c2ccc(C#N)nc12 [Compound 120] | > 7.00 | 6.00 to 7.00 |  | 
CC[C@@H]1CN2c3c(c(=O)n(C)c4ccc(C#N)nc34)OC[C@@H]2CN1[C@@H](CC)c1ccc(C(F)(F)F)cc1 [Compound 121] | > 7.00 | < 6.00 |  | 
CC[C@@H]1CN2c3c(c(=O)n(C)c4ccc(C#N)nc34)OC[C@@H]2CN1[C@H](CC)c1ccc(C(F)(F)F)cc1 [Compound 122] | > 7.00 | > 7.00 |  | 
CC[C@@H]1CN2c3c(c(=O)n(C)c4ccc(C#N)nc34)OC[C@@H]2CN1[C@@H](CC)c1ccc(SC(F)(F)F)cc1 [Compound 123] | > 7.00 | 6.00 to 7.00 |  | 
CC[C@@H]1CN2c3c(c(=O)n(C)c4ccc(C#N)nc34)OC[C@@H]2CN1[C@H](CC)c1ccc(SC(F)(F)F)cc1 [Compound 124] | > 7.00 | 6.00 to 7.00 |  | 

The next lines start with results.

pIC50 [1] | pIC50 [2] | pEC50 [4] | SMILES | pEC50 [3]
6.00 to 7.00 | 6.00 to 7.00 |  | Cn1c(=O)c(C(N)=O)c(N2CCC3(CCN(c4ccc(OC(F)(F)F)cc4)C3)CC2)c2nc(C#N)ccc21 [Compound 6] | < 6.00
> 7.00 | 6.00 to 7.00 |  | CC[C@H]1C[C@@H](Oc2ccc(OC(F)(F)F)cc2)CCN1c1nc(=O)n(C)c2ccc(C#N)nc12 [Compound 17] | > 6.30
 |  | < 6.00 | Cn1c(=O)nc(N2CCC(Oc3ccc(OC(F)(F)F)cc3)CC2)c2c1ccc1nncn12 [Compound 21] | 
6.00 to 7.00 | > 7.00 | 6.00 to 6.30 | CC[C@H]1CN([C@@H]2CCCCc3cc(C(F)(F)F)ccc32)[C@H](CC)CN1c1nc(=O)n(C)c2ccc(C#N)nc12 [Compound 45] | 
 |  | > 6.30 | C[C@H]1CC2(CCN1c1nc(=O)n(C)c3ccc(C#N)nc13)CC(c1ccc(OC(F)(F)F)cc1)=NO2 (stereo partly shown) [Compound 50] | 
6.00 to 7.00 | > 7.00 |  | CC[C@@H]1C[C@H](c2nc3cc(C)ccc3o2)CCN1c1nc(=O)n(C)c2cc(O[C@@H]3CCOC3)c(Cl)cc12 [Compound 92] | 
> 7.00 | 6.00 to 7.00 |  | CC[C@H]1C[C@@H](c2nc3cc(C)ccc3o2)CCN1c1nc(=O)n(C)c2cc(O[C@H]3CCOC3)c(Cl)cc12 [Compound 93] | 
6.00 to 7.00 | < 6.00 |  | CC[C@H]1C[C@@H](c2nc3cc(C)ccc3o2)CCN1c1nc(=O)n(C)c2cc(O[C@@H]3CCOC3)c(Cl)cc12 [Compound 94] | 
> 7.00 | > 7.00 |  | CC[C@H]1CN([C@@H](c2ccc(S(F)(F)(F)(F)F)cc2)c2nc(C3CC3)cs2)[C@H](CC)CN1c1nc(=O)n(C)c2ccc(C#N)nc12 [Compound 99] | 
